Laboratory results reported in BigSolDB 2.1.

SMILES: NC(=O)N1c2ccccc2CC(=O)c2ccccc21
- solubility (mole fraction) (in DMAc, 288.15 K): 0.0256
- solubility (mole fraction) (in DMAc, 293.15 K): 0.0189
- solubility (mole fraction) (in DMAc, 298.15 K): 0.0205
- solubility (mole fraction) (in DMAc, 303.15 K): 0.0222
- solubility (mole fraction) (in DMAc, 308.15 K): 0.0239
- solubility (mole fraction) (in DMF, 288.15 K): 0.0202
- solubility (mole fraction) (in DMF, 293.15 K): 0.0212
- solubility (mole fraction) (in DMF, 298.15 K): 0.0174
- solubility (mole fraction) (in DMF, 303.15 K): 0.0183
- solubility (mole fraction) (in DMF, 308.15 K): 0.0193
- solubility (mole fraction) (in DMSO, 288.15 K): 0.0312
- solubility (mole fraction) (in DMSO, 293.15 K): 0.0339
- solubility (mole fraction) (in DMSO, 298.15 K): 0.0367
- solubility (mole fraction) (in DMSO, 303.15 K): 0.0259
- solubility (mole fraction) (in DMSO, 308.15 K): 0.0285
- solubility (mole fraction) (in NMP, 288.15 K): 0.0346
- solubility (mole fraction) (in NMP, 293.15 K): 0.0358
- solubility (mole fraction) (in NMP, 298.15 K): 0.0369
- solubility (mole fraction) (in NMP, 303.15 K): 0.038
- solubility (mole fraction) (in NMP, 308.15 K): 0.0335
- solubility (mole fraction) (in transcutol, 288.15 K): 0.00418
- solubility (mole fraction) (in transcutol, 293.15 K): 0.00437
- solubility (mole fraction) (in transcutol, 298.15 K): 0.00456
- solubility (mole fraction) (in transcutol, 303.15 K): 0.00475
- solubility (mole fraction) (in transcutol, 308.15 K): 0.00495
- solubility (mole fraction) (in water, 288.15 K): 5.42e-06
- solubility (mole fraction) (in water, 293.15 K): 5.85e-06
- solubility (mole fraction) (in water, 298.15 K): 6.3e-06
- solubility (mole fraction) (in water, 303.15 K): 6.74e-06
- solubility (mole fraction) (in water, 308.15 K): 7.2e-06
